Source: EP0367124A1, “Penicillanic acid derivatives” (F. HOFFMANN-LA ROCHE AG, priority 1988, dated 1990)
Counter-ions that a name gives are not always drawn.

How the values were obtained:
Experiment in all cases: In vitro MIC, Agar Well Diffusion Method
Format in all cases: cell-based
[1] = system: Bacillus megaterium 164 ATCC 8011; details: for MIC: Priestia megaterium, ATCC8011, Culture Bacillus megaterium 164 ATCC 8011
From the text: (§1) The in vitro activity of compounds of the present invention as measured by the Minimum Inhibitory Concentration (MIC) in micrograms per milliliter (mcg/ml), utilizing the Agar Well Diffusion Method, against a variety of Gram-negative microorganisms is illustrated in the following Table, in which the compounds evaluated were as follows: • Compound A: [2S-[2α,3α,5α,6β(R*)]]-6-[[[[(4-Ethyl-2,3-dioxo-1-piperazinyl)carbonyl]amino]phenylacetyl]amino]-3-methyl-3-[[(1-methyl-1H-tetrazole-5-yl)thio]methyl]-7-oxo-4-thia-1-azabicyclo[3.2.0]-heptane-2-carboxylic acid monosodium salt sesquihydrate • Compound B: [2S-(2α,3α,5α,6β)]-3-Methyl-3-[[(1-methyl-1H-tetrazol-5-yl)-thio]methyl-7-oxo-6-[(phenylacetyl)amino]-4-thia-1-azabicyclo[3.2.0] heptane-2-carboxylic acid monosodium salt • Compound C: [2S-[2α,3α,5α,6β(Z)]]-6-[[(2-Amino-4-thiazolyl)-(methoxyimino)-acetyl]amino]-3-methyl -3-[[(1-methyl-1H-tetrazol-5-yl)thio]methyl]-7-oxo-4-thia-1-azabicyclo[3.2.0]heptane-2-carboxylic acid monosodium salt • Compound D: [2S-(2α,3α,5α,6β)]-3-(Azidomethyl)-3-methyl-7-oxo-6-[(phenylacetyl)amino]-4-thia-1-azabicyclo-[3.2.0]heptane-2-carboxylic acid monosodium salt • Compound E: [2S-(2α,3α,5α,6β)]-1-[[2-carboxy-3-methyl-7-oxo-6-[(phenylacetyl)amino]-4-thia-1-azabicyclo-[3.2.0]hept-3-yl]methylpyridinium hydroxide inner salt • Compound F: [2S-(2α,3α,5α,6β)]-3-[[(2,5-Dihydro-6-hydroxy-2-methyl-5-oxo-1,2,4-triazine-3-yl)thio] -methyl]-3-methyl-7-oxo-6-[(phenylacetyl)amino]-4-thia-1-azabicyclo[3.2.0]heptane-2-carboxylic acid disodium salt • Compound G: [2S-(2α,3α,5α,6β)]-3-[(Acetylthio)-methyl]-3-methyl-7-oxo-6-[(phenylacetyl)amino]-4-thia-1-azabicyclo[3.2.0]heptane-2-carboxylic acid monosodium salt • Compound H: [2S-(2α,3α,5α,6β)]-3-[[[3,4-bis(Acetyloxy)benzoyl]oxy]methyl]-3-methyl-7-oxo-6-[(phenylacetyl)amino]-4-thia-1-azabicyclo[3.2.0]heptane-2-carboxylic acid monosodium salt

[2] = system: Bacillus subtilus 558 NRRL 558; details: for MIC: NRRL558, Culture Bacillus subtilus 558 NRRL 558
From the text: as §1

Escherichia coli 1269B = details: Culture Escherichia coli 1269B
From the text: as §1

Escherichia coli 2721B = details: Culture Escherichia coli 2721B
From the text: as §1

Escherichia coli 2722B = details: Culture Escherichia coli 2722B
From the text: as §1

Escherichia coli 3081B = details: Culture Escherichia coli 3081B
From the text: as §1

Escherichia coli 3082B = details: Culture Escherichia coli 3082B
From the text: as §1

[3] = system: Micrococcus luteus PCI ATCC 9341; details: for MIC: ATCC9341, Culture Micrococcus luteus PCI ATCC 9341
From the text: as §1

Proteus vulgaris 100 = details: Culture Proteus vulgaris 100
From the text: as §1

[4] = system: Proteus vulgaris 101N ATCC 6380; details: for MIC: ATCC6380, Culture Proteus vulgaris 101N ATCC 6380
From the text: as §1

[5] = system: Pseudomonas aeruginosa 56 ATCC 8079; details: for MIC: ATCC8079, Culture Pseudomonas aeruginosa 56 ATCC 8079
From the text: as §1

[6] = system: Pseudomonas aeruginosa 56M; details: Culture Pseudomonas aeruginosa 56M
From the text: as §1

[7] = system: Pseudomonas maltophilia 28978 ATCC 17445; details: Stenotrophomonas maltophilia, ATCC17445, Culture Pseudomonas maltophilia 28978 ATCC 17445
From the text: as §1

[8] = system: Staphylococcus aureus 3647B; details: Culture Staphylococcus aureus 3647B
From the text: as §1

[9] = system: Staphylococcus aureus 82 ATCC 6538P; details: Culture Staphylococcus aureus 82 ATCC 6538P; for MIC: ATCC6538P
From the text: as §1

[10] = system: Streptococcus faecium ATCC 8043; details: for MIC: Enterococcus faecium, ATCC8043, Culture Streptococcus faecium ATCC 8043
From the text: as §1

[11] = system: Staphylococcus aureus 1059B; details: Culture Staphylococcus aureus 1059B
[12] = system: Staphylococcus aureus 3037B; details: Culture Staphylococcus aureus 3037B

Compound	MIC [1]	MIC [2]	MIC (Escherichia coli 1269B)	MIC (Escherichia coli 2721B)	MIC (Escherichia coli 2722B)	MIC (Escherichia coli 3081B)	MIC (Escherichia coli 3082B)	MIC [3]	MIC (Proteus vulgaris 100)	MIC [4]	MIC [5]	MIC [6]	MIC [7]	MIC [8]	MIC [9]	MIC [10]	MIC [11]	MIC [12]	further results
CC1(CN=[N+]=[N-])SC2C(NC(=O)Cc3ccccc3)C(=O)N2C1C(=O)O (stereo not drawn) [Compound D, [2S-(2α,3α,5α,6β)]-3-(Azidomethyl)-3-methyl-7-oxo-6-[(phenylacetyl)amino]-4-thia-1-azabicyclo-[3.2.0]heptane-2-carboxylic acid monosodium salt]	0.12 µg/mL	0.06 µg/mL	> 125 µg/mL	62.5 µg/mL	15.6 µg/mL	125 µg/mL	7.8 µg/mL	0.03 µg/mL	> 125 µg/mL	15.6 µg/mL	> 125 µg/mL	3.9 µg/mL	> 125 µg/mL	125 µg/mL	0.03 µg/mL	7.8 µg/mL	7.8 µg/mL	125 µg/mL	–
CC1(C[n+]2ccccc2)SC2C(NC(=O)Cc3ccccc3)C(=O)N2C1C(=O)[O-] (stereo not drawn) [Compound E, [2S-(2α,3α,5α,6β)]-1-[[2-carboxy-3-methyl-7-oxo-6-[(phenylacetyl)amino]-4-thia-1-azabicyclo-[3.2.0]hept-3-yl]methylpyridinium hydroxideinner salt]	0.49 µg/mL	0.24 µg/mL	500 µg/mL	31.3 µg/mL	31.3 µg/mL	125 µg/mL	31.3 µg/mL	1.95 µg/mL	> 500 µg/mL	125 µg/mL	125 µg/mL	3.9 µg/mL	–	500 µg/mL	0.49 µg/mL	125 µg/mL	15.6 µg/mL	62.5 µg/mL	–
Cn1nc([O-])c(=O)nc1SC[C@@]1(C)S[C@@H]2[C@H](NC(=O)Cc3ccccc3)C(=O)N2[C@H]1C(=O)[O-].[Na+].[Na+] [Compound F, [2S-(2α,3α,5α,6β)]-3-[[(2,5-Dihydro-6-hydroxy-2-methyl-5-oxo-1,2,4-triazine-3-yl)thio] -methyl]-3-methyl-7-oxo-6-[(phenylacetyl)amino]-4-thia-1-azabicyclo[3.2.0]heptane-2-carboxylic acid disodium salt]	–	–	–	–	–	–	–	–	–	–	–	–	–	–	–	–	–	–	In Vitro MIC ([1]; Culture Bacillus megaterium 164 ATCC 8011): 0.12 µg/mL; In Vitro MIC ([2]; Culture Bacillus subtilus 558 NRRL 558): 0.12 µg/mL; In Vitro MIC (Escherichia coli 1269B): 500 µg/mL; In Vitro MIC (Escherichia coli 2721B): 31.3 µg/mL; In Vitro MIC (Escherichia coli 2722B): 3.9 µg/mL; In Vitro MIC (Escherichia coli 3081B): 125 µg/mL; In Vitro MIC (Escherichia coli 3082B): 0.98 µg/mL; In Vitro MIC ([3]; Culture Micrococcus luteus PCI ATCC 9341): 0.24 µg/mL; In Vitro MIC (Proteus vulgaris 100): 250 µg/mL; In Vitro MIC ([4]; Culture Proteus vulgaris 101N ATCC 6380): 7.8 µg/mL; In Vitro MIC ([5]; Culture Pseudomonas aeruginosa 56 ATCC 8079): 31.5 µg/mL; In Vitro MIC [6]: 0.49 µg/mL; In Vitro MIC [8]: 500 µg/mL; In Vitro MIC [9]: 0.24 µg/mL; In Vitro MIC ([10]; Culture Streptococcus faecium ATCC 8043): 62.5 µg/mL; In Vitro MIC [11]: 0.24 µg/mL; In Vitro MIC [12]: 500 µg/mL

Continued, in another order:

MIC [1]	MIC [2]	MIC (Escherichia coli 1269B)	MIC (Escherichia coli 2721B)	MIC (Escherichia coli 2722B)	MIC (Escherichia coli 3081B)	MIC (Escherichia coli 3082B)	MIC [3]	MIC (Proteus vulgaris 100)	MIC [4]	MIC [5]	MIC [6]	MIC [7]	MIC [8]	MIC [9]	MIC [10]	MIC [11]	MIC [12]	Compound	further results
0.12 µg/mL	0.98 µg/mL	62.5 µg/mL	3.9 µg/mL	0.12 µg/mL	15.6 µg/mL	0.24 µg/mL	0.49 µg/mL	7.8 µg/mL	0.98 µg/mL	15.6 µg/mL	0.49 µg/mL	250 µg/mL	500 µg/mL	0.98 µg/mL	31.3 µg/mL	7.8 µg/mL	500 µg/mL	CCN1CCN(C(=O)NC(C(=O)NC2C(=O)N3C2SC(C)(CSc2nnnn2C)C3C(=O)O)c2ccccc2)C(=O)C1=O (stereo not drawn) [Compound A, [2S-[2α,3α,5α,6β(R*)]]-6-[[[[(4-Ethyl-2,3-dioxo-1-piperazinyl)carbonyl]amino]phenylacetyl]amino]-3-methyl-3-[[(1-methyl-1H-tetrazole-5-yl)thio]methyl]-7-oxo-4-thia-1-azabicyclo[3.2.0]-heptane-2-carboxylic acid monosodium salt sesquihydrate]	–
0.015 µg/mL	0.03 µg/mL	> 125 µg/mL	62.5 µg/mL	31.3 µg/mL	> 125 µg/mL	31.3 µg/mL	0.03 µg/mL	> 125 µg/mL	15.6 µg/mL	62.5 µg/mL	0.98 µg/mL	> 125 µg/mL	125 µg/mL	0.03 µg/mL	7.8 µg/mL	3.9 µg/mL	125 µg/mL	Cn1nnnc1SCC1(C)SC2C(NC(=O)Cc3ccccc3)C(=O)N2C1C(=O)O (stereo not drawn) [Compound B, [2S-(2α,3α,5α,6β)]-3-Methyl-3-[[(1-methyl-1H-tetrazol-5-yl)-thio]methyl-7-oxo-6-[(phenylacetyl)amino]-4-thia-1-azabicyclo[3.2.0]heptane-2-carboxylic acid monosodium salt]	–
0.12 µg/mL	0.49 µg/mL	> 500 µg/mL	31.3 µg/mL	1.95 µg/mL	> 125 µg/mL	1.95 µg/mL	0.24 µg/mL	250 µg/mL	31.3 µg/mL	62.5 µg/mL	0.98 µg/mL	> 500 µg/mL	250 µg/mL	0.49 µg/mL	125 µg/mL	3.9 µg/mL	250 µg/mL	CON=C(C(=O)NC1C(=O)N2C1SC(C)(CSc1nnnn1C)C2C(=O)O)c1csc(N)n1 (stereo not drawn) [Compound C, [2S-[2α,3α,5α,6β(Z)]]-6-[[(2-Amino-4-thiazolyl)-(methoxyimino)-acetyl]amino]-3-methyl-3-[[(1-methyl-1H-tetrazol-5-yl)thio]methyl]-7-oxo-4-thia-1-azabicyclo[3.2.0]heptane-2-carboxylic acid monosodium salt]	–
–	0.03 µg/mL	–	62.5 µg/mL	7.8 µg/mL	500 µg/mL	1.95 µg/mL	0.06 µg/mL	> 500 µg/mL	31.3 µg/mL	125 µg/mL	0.98 µg/mL	> 500 µg/mL	250 µg/mL	0.03 µg/mL	0.98 µg/mL	0.98 µg/mL	250 µg/mL	CC(=O)SCC1(C)SC2C(NC(=O)Cc3ccccc3)C(=O)N2C1C(=O)O (stereo not drawn) [Compound G, [2S-(2α,3α,5α,6β)]-3-[(Acetylthio)methyl]-3-methyl-7-oxo-6-[(phenylacetyl)amino]-4-thia-1-azabicyclo[3.2.0]heptane-2-carboxylic acid monosodium salt]	–
–	0.12 µg/mL	–	500 µg/mL	62.5 µg/mL	> 500 µg/mL	15.6 µg/mL	0.12 µg/mL	> 500 µg/mL	62.5 µg/mL	31.5 µg/mL	1.95 µg/mL	31.5 µg/mL	500 µg/mL	0.12 µg/mL	7.8 µg/mL	7.8 µg/mL	125 µg/mL	CC(=O)Oc1ccc(C(=O)OCC2(C)SC3C(NC(=O)Cc4ccccc4)C(=O)N3C2C(=O)O)cc1OC(C)=O (stereo not drawn) [Compound H, [2S-(2α,3α,5α,6β)]-3-[[[3,4-bis(Acetyloxy)benzoyl]oxy]methyl]-3-methyl-7-oxo-6-[(phenylacetyl)amino]-4-thia-1-azabicyclo[3.2.0]heptane-2-carboxylic acid monosodium salt]	–
